According to patent US12077503B2, “Substituted cyclic amides and their use as herbicides” (FMC CORPORATION, priority 2015, dated 2024):

Experiments:
Assay type in all cases: in vivo
corn (Zea mays) [1] = test: Test G Pre-Emergence Protocol; conditions: Zea mays, pre-emergence, 312 h, evaluated after 13 days; for plant injury at 15.625 g/ha: 15.625 g ai/ha; for plant injury at 15.625 g/ha / plant injury at 250 g/ha: read-out: Corn damage rating (100=total damage to plant; 0=no damage to plant); for plant injury at 62.5 g/ha: 62.5 g ai/ha, 100=total damage to plant, 0=no damage to plant, read-out: plant damage rating, Corn; for plant injury at 250 g/ha: 250 g ai/ha
Procedure, shortened: (§1)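 Seeds were sown in standard soil and kept one day in a glasshouse (24/16° C day/night, 14 h light, 65% humidity), then sprayed with compound in acetone/water (50:50) containing 0.5% Tween 20 at 15.625, 62.5 or 250 g/ha. Damage was scored after 13 days (0 = none, 100 = total).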

[2] = system: velvetleaf (Abutilon theophrasti); test: Test G Pre-Emergence Protocol; conditions: Abutilon theophrasti, pre-emergence, 312 h, evaluated after 13 days; for pest or weed control at 15.625 g/ha: 15.625 g ai/ha; for pest or weed control at 15.625 g/ha / pest or weed control at 250 g/ha: read-out: Velvetleaf damage rating (100=total damage to plant; 0=no damage to plant); for pest or weed control at 62.5 g/ha: 62.5 g ai/ha, 100=total damage to plant, 0=no damage to plant, read-out: plant damage rating, Velvetleaf; for pest or weed control at 250 g/ha: 250 g ai/ha
Procedure, shortened: as §1

[3] = system: redroot pigweed (Amaranthus retroflexus); test: Test G Pre-Emergence Protocol; conditions: Amaranthus retroflexus, pre-emergence, 312 h, evaluated after 13 days; for pest or weed control at 15.625 g/ha: 15.625 g ai/ha; for pest or weed control at 15.625 g/ha / pest or weed control at 250 g/ha: read-out: Pigweed, Redroot damage rating (100=total damage to plant; 0=no damage to plant); for pest or weed control at 62.5 g/ha: 62.5 g ai/ha, 100=total damage to plant, 0=no damage to plant, read-out: plant damage rating, Pigweed, Redroot; for pest or weed control at 250 g/ha: 250 g ai/ha
Procedure, shortened: as §1

[4] = system: giant foxtail (Setaria faberi); test: Test G Pre-Emergence Protocol; conditions: Setaria faberi, pre-emergence, 312 h, evaluated after 13 days; for pest or weed control at 15.625 g/ha: 15.625 g ai/ha; for pest or weed control at 15.625 g/ha / pest or weed control at 250 g/ha: read-out: Foxtail, Giant damage rating (100=total damage to plant; 0=no damage to plant); for pest or weed control at 62.5 g/ha: 62.5 g ai/ha, 100=total damage to plant, 0=no damage to plant, read-out: plant damage rating, Foxtail, Giant; for pest or weed control at 250 g/ha: 250 g ai/ha
Procedure, shortened: as §1

[5] = system: ivy-leaved morning glory (Ipomoea hederacea); test: Test G Pre-Emergence Protocol; conditions: Ipomoea, pre-emergence, 312 h, evaluated after 13 days; for pest or weed control at 15.625 g/ha: 15.625 g ai/ha, read-out: Morning-glory, Ivy-leaved damage rating (100=total damage to plant; 0=no damage to plant); for pest or weed control at 62.5 g/ha: 62.5 g ai/ha, 100=total damage to plant, 0=no damage to plant, read-out: plant damage rating, Morningglory, Ivy-leaved; for pest or weed control at 250 g/ha: 250 g ai/ha, read-out: Morningglory, Ivy-leaved damage rating (100=total damage to plant; 0=no damage to plant)
Procedure, shortened: as §1

[6] = system: barnyardgrass (Echinochloa crus-galli); test: Test G Pre-Emergence Protocol; conditions: Echinochloa crus-galli, pre-emergence, 312 h, evaluated after 13 days; for pest or weed control at 15.625 g/ha: 15.625 g ai/ha, read-out: Barnyard grass damage rating (100=total damage to plant; 0=no damage to plant); for pest or weed control at 62.5 g/ha: 62.5 g ai/ha, 100=total damage to plant, 0=no damage to plant, read-out: plant damage rating, Barnyardgrass; for pest or weed control at 250 g/ha: 250 g ai/ha, read-out: Barnyardgrass damage rating (100=total damage to plant; 0=no damage to plant)
Procedure, shortened: as §1

corn (Zea mays) [7] = test: Test G Post-Emergence Protocol; conditions: Zea mays, post-emergence, 312 h; for plant injury at 15.625 g/ha: 15.625 g ai/ha, evaluated after 13 days (100=total damage to plant; 0=no damage to plant), read-out: Corn damage rating; for plant injury at 62.5 g/ha: 62.5 g ai/ha, read-out: Corn damage rating (100=total damage to plant; 0=no damage to plant); for plant injury at 62.5 g/ha / plant injury at 250 g/ha: evaluated after 13 days; for plant injury at 250 g/ha: 250 g ai/ha, read-out: damage to plant, Corn (100=total damage to plant; 0=no damage to plant)
Procedure, shortened: (§2)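 Foliar application was made 8 days after sowing, using an aqueous spray of the active in acetone/water (50:50) with 0.5% Tween 20, at doses of 15.625, 62.5 or 250 g/ha. Injury was assessed 13 days later, where 100 meant the plant was fully damaged.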

[8] = system: velvetleaf (Abutilon theophrasti); test: Test G Post-Emergence Protocol; conditions: Abutilon theophrasti, post-emergence, 312 h; for pest or weed control at 15.625 g/ha: 15.625 g ai/ha, evaluated after 13 days (100=total damage to plant; 0=no damage to plant), read-out: Velvetleaf damage rating; for pest or weed control at 62.5 g/ha: 62.5 g ai/ha, read-out: Velvetleaf damage rating (100=total damage to plant; 0=no damage to plant); for pest or weed control at 62.5 g/ha / pest or weed control at 250 g/ha: evaluated after 13 days; for pest or weed control at 250 g/ha: 250 g ai/ha, read-out: damage to plant, Velvetleaf (100=total damage to plant; 0=no damage to plant)
Procedure, shortened: as §2

[9] = system: redroot pigweed (Amaranthus retroflexus); test: Test G Post-Emergence Protocol; conditions: Amaranthus retroflexus, post-emergence, 312 h; for pest or weed control at 15.625 g/ha: 15.625 g ai/ha, evaluated after 13 days (100=total damage to plant; 0=no damage to plant), read-out: Pigweed, Redroot damage rating; for pest or weed control at 62.5 g/ha: 62.5 g ai/ha, read-out: Pigweed, Redroot damage rating (100=total damage to plant; 0=no damage to plant); for pest or weed control at 62.5 g/ha / pest or weed control at 250 g/ha: evaluated after 13 days; for pest or weed control at 250 g/ha: 250 g ai/ha, read-out: damage to plant, Pigweed, Redroot (100=total damage to plant; 0=no damage to plant)
Procedure, shortened: as §2

[10] = system: giant foxtail (Setaria faberi); test: Test G Post-Emergence Protocol; conditions: Setaria faberi, post-emergence, 312 h; for pest or weed control at 15.625 g/ha: 15.625 g ai/ha, evaluated after 13 days (100=total damage to plant; 0=no damage to plant), read-out: Foxtail, Giant damage rating; for pest or weed control at 62.5 g/ha: 62.5 g ai/ha, read-out: Foxtail, Giant damage rating (100=total damage to plant; 0=no damage to plant); for pest or weed control at 62.5 g/ha / pest or weed control at 250 g/ha: evaluated after 13 days; for pest or weed control at 250 g/ha: 250 g ai/ha, read-out: damage to plant, Foxtail, Giant (100=total damage to plant; 0=no damage to plant)
Procedure, shortened: as §2

[11] = system: ivy-leaved morning glory (Ipomoea hederacea); test: Test G Post-Emergence Protocol; conditions: Ipomoea, post-emergence, 312 h; for pest or weed control at 15.625 g/ha: 15.625 g ai/ha, evaluated after 13 days (100=total damage to plant; 0=no damage to plant), read-out: Morningglory, Ivy-leaved damage rating; for pest or weed control at 62.5 g/ha: 62.5 g ai/ha, read-out: Morningglory, Ivy-leaved damage rating (100=total damage to plant; 0=no damage to plant); for pest or weed control at 62.5 g/ha / pest or weed control at 250 g/ha: evaluated after 13 days; for pest or weed control at 250 g/ha: 250 g ai/ha, read-out: damage to plant, Morningglory, Ivy-leaved (100=total damage to plant; 0=no damage to plant)
Procedure, shortened: as §2

[12] = system: barnyardgrass (Echinochloa crus-galli); test: Test G Post-Emergence Protocol; conditions: Echinochloa crus-galli, post-emergence, 312 h; for pest or weed control at 15.625 g/ha: 15.625 g ai/ha, evaluated after 13 days (100=total damage to plant; 0=no damage to plant), read-out: Barnyardgrass damage rating; for pest or weed control at 62.5 g/ha: 62.5 g ai/ha, read-out: Barnyardgrass damage rating (100=total damage to plant; 0=no damage to plant); for pest or weed control at 62.5 g/ha / pest or weed control at 250 g/ha: evaluated after 13 days; for pest or weed control at 250 g/ha: 250 g ai/ha, read-out: damage to plant, Barnyardgrass (100=total damage to plant; 0=no damage to plant)
Procedure, shortened: as §2

SMILES	plant injury at 15.625 g/ha (corn (Zea mays) [1])	plant injury at 62.5 g/ha (corn (Zea mays) [1])	plant injury at 250 g/ha (corn (Zea mays) [1])	pest or weed control at 15.625 g/ha [2]	pest or weed control at 62.5 g/ha [2]	pest or weed control at 250 g/ha [2]	pest or weed control at 15.625 g/ha [3]	pest or weed control at 62.5 g/ha [3]	pest or weed control at 250 g/ha [3]	pest or weed control at 15.625 g/ha [4]	pest or weed control at 62.5 g/ha [4]	pest or weed control at 250 g/ha [4]	pest or weed control at 15.625 g/ha [5]	pest or weed control at 62.5 g/ha [5]	pest or weed control at 250 g/ha [5]	pest or weed control at 15.625 g/ha [6]	pest or weed control at 62.5 g/ha [6]	pest or weed control at 250 g/ha [6]	plant injury at 15.625 g/ha (corn (Zea mays) [7])	plant injury at 62.5 g/ha (corn (Zea mays) [7])	other results
CN1C[C@@H](c2ccc(C(F)(F)F)nc2)[C@H](C(=O)Nc2cccc(F)c2F)C1=O (racemic) [Compound 1458]	0%	0%	50%	0%	0%	30%	0%	0%	70%	20%	80%	80%	0%	0%	20%	20%	80%	80%	10%	10%	plant injury at 250 g/ha (corn (Zea mays) [7]): 10%; pest or weed control at 15.625 g/ha [8]: 0%; pest or weed control at 62.5 g/ha [8]: 0%; pest or weed control at 250 g/ha [8]: 0%; pest or weed control at 15.625 g/ha [9]: 10%; pest or weed control at 62.5 g/ha [9]: 30%; pest or weed control at 250 g/ha [9]: 30%; pest or weed control at 15.625 g/ha [10]: 30%; pest or weed control at 62.5 g/ha [10]: 50%; pest or weed control at 250 g/ha [10]: 60%; pest or weed control at 15.625 g/ha [11]: 10%; pest or weed control at 62.5 g/ha [11]: 20%; pest or weed control at 250 g/ha [11]: 30%; pest or weed control at 15.625 g/ha [12]: 10%; pest or weed control at 62.5 g/ha [12]: 20%; pest or weed control at 250 g/ha [12]: 20%
CN1C[C@@H](c2cncc(Cl)c2)[C@H](C(=O)Nc2cccc(F)c2F)C1=O (racemic) [Compound 1461]	0%	0%	0%	0%	0%	0%	0%	0%	0%	30%	80%	90%	0%	0%	0%	0%	60%	90%	10%	0%	plant injury at 250 g/ha (corn (Zea mays) [7]): 0%; pest or weed control at 15.625 g/ha [8]: 0%; pest or weed control at 62.5 g/ha [8]: 0%; pest or weed control at 250 g/ha [8]: 0%; pest or weed control at 15.625 g/ha [9]: 0%; pest or weed control at 62.5 g/ha [9]: 0%; pest or weed control at 250 g/ha [9]: 0%; pest or weed control at 15.625 g/ha [10]: 20%; pest or weed control at 62.5 g/ha [10]: 70%; pest or weed control at 250 g/ha [10]: 70%; pest or weed control at 15.625 g/ha [11]: 0%; pest or weed control at 62.5 g/ha [11]: 0%; pest or weed control at 250 g/ha [11]: 0%; pest or weed control at 15.625 g/ha [12]: 0%; pest or weed control at 62.5 g/ha [12]: 30%; pest or weed control at 250 g/ha [12]: 50%
